# Laboratory results: ChEMBL document CHEMBL3612043, “Synthesis and biological evaluation of 6-substituted indolizinoquinolinediones as catalytic DNA topoisomerase I inhibitors” (Eur J Med Chem, 2015)
# Calls of active or inactive are those of the source. The rule behind the calls is not given here.
# Tests used:
# [1] = molecular target: T1, DNA topoisomerase 1 (Homo sapiens) (UniProt P11387); assay: Induction of recombinant Top1 (unknown origin) assessed as 3'-[32P]-labeled 117-bp DNA oligonucleotide cleavage after 20 mins
# T1 sequence (whole entry): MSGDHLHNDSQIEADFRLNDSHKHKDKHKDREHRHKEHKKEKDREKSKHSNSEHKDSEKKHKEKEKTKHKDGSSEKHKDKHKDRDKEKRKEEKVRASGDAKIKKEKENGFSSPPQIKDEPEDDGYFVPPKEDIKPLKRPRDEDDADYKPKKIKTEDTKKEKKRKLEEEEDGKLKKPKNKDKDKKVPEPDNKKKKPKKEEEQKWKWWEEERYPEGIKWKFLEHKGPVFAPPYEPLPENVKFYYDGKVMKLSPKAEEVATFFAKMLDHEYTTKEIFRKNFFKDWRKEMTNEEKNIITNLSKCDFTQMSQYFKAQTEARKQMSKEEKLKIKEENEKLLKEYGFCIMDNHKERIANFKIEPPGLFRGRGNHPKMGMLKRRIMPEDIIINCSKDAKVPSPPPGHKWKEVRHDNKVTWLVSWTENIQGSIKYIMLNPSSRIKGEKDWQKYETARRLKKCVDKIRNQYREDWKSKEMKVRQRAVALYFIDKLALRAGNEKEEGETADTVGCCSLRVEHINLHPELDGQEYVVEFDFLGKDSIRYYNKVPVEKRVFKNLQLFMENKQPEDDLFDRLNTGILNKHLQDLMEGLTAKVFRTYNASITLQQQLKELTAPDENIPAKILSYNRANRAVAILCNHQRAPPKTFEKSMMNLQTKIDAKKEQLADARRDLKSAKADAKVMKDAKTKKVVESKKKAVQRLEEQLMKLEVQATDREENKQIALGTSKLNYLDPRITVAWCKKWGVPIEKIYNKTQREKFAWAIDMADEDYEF
# HeLa = assay: cells; conditions: Homo sapiens, 48 h
# Description: Cytotoxicity against human HeLa cells after 48 hrs by MTT assay
# CA46 = assay: Cytotoxicity against human CA46 cells after 48 hrs by MTT assay; type: functional, cell-based; conditions: CA46, 48 h
# A549 = assay: cells; conditions: Homo sapiens, A549, 48 h
# Description: Cytotoxicity against human A549 cells after 48 hrs by MTT assay
# HL-60 = assay: cells; conditions: Homo sapiens, HL-60, 48 h
# Description: Cytotoxicity against human HL60 cells after 48 hrs by MTT assay
# Bos taurus = species on record: Bos taurus; assay: Inhibition of calf thymus Top1-mediated pBR322 DNA relaxation at 25 uM preincubated for 15 mins measured after 30 mins by ethidium bromide staining relative to camptothecin
# [2] = molecular target: T1, DNA topoisomerase 1 (Homo sapiens); assay: Inhibition of Top1 (unknown origin)-mediated unwinding of relaxed pBR322 DNA preincubated for 10 mins measured after 30 mins by UV transilluminator analysis
# [3] = Inhibition of calf thymus Top1-mediated pBR322 DNA relaxation preincubated for 15 mins measured after 30 mins by ethidium bromide staining; design: species or system Bos taurus
SMILES,Activity [1],IC50 (HeLa) [µM],IC50 (CA46) [µM],IC50 (A549) [µM],IC50 (HL-60) [µM],Top1 relaxation inhibition relative to camptothecin (%) (Bos taurus),inhibition [2],IC50 [3] [µM]
O=C1c2cccnc2C(=O)c2c1c(C(=O)NCCN1CCCCC1)c1ccccn21,inactive,,,,,,,
CCN(CC)C(=O)c1c2c(n3ccccc13)C(=O)c1ncccc1C2=O,inactive,46,15,64,14,< 40,,
CN1CCN(CCCNC(=O)c2c3c(n4ccccc24)C(=O)c2ncccc2C3=O)CC1,inactive,8.9,3.8,5.5,2.2,> 120,Active,
O=C1c2cccnc2C(=O)c2c1c(C(=O)N1CCCCC1)c1ccccn21,inactive,19,13,76,52,< 40,,
O=C1c2cccnc2C(=O)c2c1c(C(=O)NCCn1ccnc1)c1ccccn21,inactive,5.8,2.9,2.3,2.3,> 120,inactive,
O=C1c2cccnc2C(=O)c2c1c(C(=O)OCCN1CCCC1)c1ccccn21,inactive,,,,,,,
O=C1c2cccnc2C(=O)c2c1c(C(=O)OCCCN1CCCC1)c1ccccn21,inactive,0.94,1.1,0.14,0.026,> 120,Active,
CC[C@@]1(O)C(=O)OCc2c1cc1n(c2=O)Cc2cc3ccccc3nc2-1 [CAMPTOTHECIN],inactive,14,0.52,1.6,0.015,81,,25
CCN(CC)CCCNC(=O)c1c2c(n3ccccc13)C(=O)c1ncccc1C2=O,inactive,1.3,1.2,1,1.4,> 120,Active,
O=C1c2cccnc2C(=O)c2c1c(C(=O)NCCN1CCOCC1)c1ccccn21,inactive,1.6,3.4,0.89,1.2,> 120,Active,
O=C1c2cccnc2C(=O)c2c1c(C(=O)OCCCBr)c1ccccn21,inactive,,,,,,,
CN(C)CCCNC(=O)c1c2c(n3ccccc13)C(=O)c1ncccc1C2=O,inactive,0.96,1.2,0.37,2.3,> 120,Active,
O=C1c2cccnc2C(=O)c2c1c(C(=O)OCCc1ccccn1)c1ccccn21,inactive,1.1,2.9,7.8,0.11,81,inactive,
CN(C)CCNC(=O)c1c2c(n3ccccc13)C(=O)c1ncccc1C2=O,inactive,0.92,5.9,0.61,1.2,> 120,Active,
O=C1c2cccnc2C(=O)c2c1c(C(=O)OCCN1CCCCC1)c1ccccn21,inactive,2.2,3,0.52,0.32,> 120,Active,
O=C1c2cccnc2C(=O)c2c1c(C(=O)NCCCN1CCOCC1)c1ccccn21,inactive,5.9,1.1,4.2,1.3,> 120,Active,
CN1CCN(C(=O)c2c3c(n4ccccc24)C(=O)c2ncccc2C3=O)CC1,inactive,62,2.6,30,5.7,40,,
O=C1c2cccnc2C(=O)c2c1c(C(=O)OCCBr)c1ccccn21,inactive,,,,,,,
O=C1c2cccnc2C(=O)c2c1c(C(=O)OCCN1CCOCC1)c1ccccn21,inactive,10,5.8,< 0.01,0.034,> 120,inactive,
O=C1c2cccnc2C(=O)c2c1c(C(=O)OCCCN1CCCCC1)c1ccccn21,inactive,0.48,0.9,1,0.025,> 120,Active,
CCNC(=O)c1c2c(n3ccccc13)C(=O)c1ncccc1C2=O,inactive,,,,,,,
CCOC(=O)c1c2c(n3ccccc13)C(=O)c1ncccc1C2=O,inactive,22,3.7,1.4,0.3,81,inactive,
O=C1c2cccnc2C(=O)c2c1c(C(=O)OCCCN1CCOCC1)c1ccccn21,inactive,2.2,1.4,1.9,0.064,> 120,Active,
O=C1c2cccnc2C(=O)c2c1c(C(=O)N1CCOCC1)c1ccccn21,inactive,> 100,13,77,22,< 40,,
O=C1c2cccnc2C(=O)c2c1c(C(=O)NCCCN1CCCCC1)c1ccccn21,inactive,1.2,1.2,3.3,1.3,> 120,Active,
CN1CCN(CCNC(=O)c2c3c(n4ccccc24)C(=O)c2ncccc2C3=O)CC1,inactive,1,1.1,0.44,2.8,> 120,Active,
O=C1c2cccnc2C(=O)c2c1c(C(=O)NCCCc1ccccc1)c1ccccn21,inactive,29,14,15,75,40,,
O=C1c2cccnc2C(=O)c2c1c(C(=O)NCCCN1CCCC1)c1ccccn21,inactive,1.8,2.7,1.2,1.9,> 120,Active,
O=C1c2cccnc2C(=O)c2c1c(C(=O)NCCN1CCCC1)c1ccccn21,inactive,0.78,15,0.49,1.2,> 120,Active,
O=C1c2cccnc2C(=O)c2c1c(C(=O)NCCc1ccccc1)c1ccccn21,inactive,17,7.9,19,14,< 40,,
